Test results taken from patent US20200306295A1, “METHOD AND DEVICE FOR ANNIHILATION OF Staphylococcus aureus” (priority 2017, published 2020).

Test system: MRSA USA300
Experiment: In vivo MRSA mice wound model (blue light, H2O2, fusidic acid)
Design: species or system Balb/c mice
Text: To initiate the formation of a skin wound, five groups (n=5) of eight-week old female Balb/c mice (obtained from Harlan Laboratories, Indianapolis, Ind., USA) were disinfected with ethanol (70%) and shaved on the middle of the back (approximately a one-inch by one-inch square region around the injection site) one day prior to infection as described from a reported procedure (3). To prepare the bacterial inoculum, an aliquot of overnight culture of MRSA USA300 was transferred to fresh Tryptic soy broth and shaken at 37° C. until an OD600 value of ˜1.0 was achieved. The cells were centrifuged, washed once with PBS, re-centrifuged, and then re-suspended in PBS. Mice subsequently received an intradermal injection (40 μL) containing 2.40×10^9 CFU/mL MRSA USA300. An open wound formed at the site of injection for each mouse, ˜60 hrs post-infection.
One group of mice was left untreated (negative control). Each group of mice receiving a particular treatment regimen was housed separately in a ventilated cage with appropriate bedding, food, and water. Mice were checked twice daily during infection and treatment to ensure no adverse reactions were observed. Mice were treated twice daily (once every 12 hours) for three days, before they were humanely euthanized via CO2 asphyxiation 12 hours after the last dose was administered. The region around the skin wound was lightly swabbed with ethanol (70%) and excised. The tissue was subsequently homogenized in PBS. The homogenized tissue was then serially diluted in PBS before plating onto mannitol salt agar plates. Plates were incubated for at least 19 hours at 37° C. before viable MRSA CFU/mL were counted for each group. Outlier was removed based upon the Dixon Q Test.

[1] = agent alone, topical, twice a day for three days

Structure (SMILES)	pus formation in wound after sacrifice [1]	CFU reduction in wound tissue compared to the control group (blue light (24 J/cm^2) and 13.2 mM H2O2, twice daily for three days)	CFU reduction in wound tissue compared to fusidic acid-treated group (blue light and H2O2-treated group)	pus formation in wound after sacrifice (blue light plus H2O2)
OO [H2O2, hydrogen peroxide]	didn't show this sign	around 1.5 log	around one more log reduction	didn't show this sign
CC(=O)O[C@H]1C[C@@]2(C)[C@@H](C[C@@H](O)[C@H]3[C@@]4(C)CC[C@@H](O)[C@@H](C)[C@@H]4CC[C@@]32C)/C1=C(\CCC=C(C)C)C(=O)O [fusidic acid]	showed the formation of pus	–	–	–
